In PubChem BioAssay AID328 (DTP/NCI, 2004):
“And” between values parts separate entries of the source, which are not always exact repeats. Equal values may be shown once. Inconclusive results and toxic doses are left out.

Tested on: BDF1 mice, P388 leukemia ip, median survival T/C
Test: NCI In Vivo Anticancer Drug Screen. Data for tumor model P388 Leukemia (intraperitoneal) in B6D2F1 (BDF1) mice
Conditions: endpoint: median survival time, higher = longer survival
Procedure, shortened: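 Transplantable tumour in mice; compound vs vehicle dosing; survival scored; ratio of treated to control reported.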

[1] = dose: 25.0 mg/kg/injection, schedule: Q04DX003 (ip), vehicle: saline with Tween-80
[2] = dose: 25.0 mg/kg/injection, schedule: Q01DX009 (ip), vehicle: saline with Tween-80
[3] = dose: 50.0 mg/kg/injection, schedule: Q01DX009 (ip), vehicle: saline with Tween-80
[4] = dose: 100.0 mg/kg/injection, schedule: Q04DX003 (ip), vehicle: saline with Tween-80
[5] = dose: 50.0 mg/kg/injection, schedule: Q01DX009 (ip), vehicle: saline
[6] = dose: 100.0 mg/kg/injection, schedule: Q01DX009 (ip), vehicle: saline with Tween-80
[7] = dose: 100.0 mg/kg/injection, schedule: Q01DX009 (ip), vehicle: saline
[8] = dose: 200.0 mg/kg/injection, schedule: Q01DX009 (ip), vehicle: saline with Tween-80
[9] = dose: 400.0 mg/kg/injection, schedule: Q01DX009 (ip), vehicle: saline with Tween-80
[10] = dose: 25.0 mg/kg/injection, schedule: Q01DX009 (ip), vehicle: Klucel (hydroxypropylcellulose) (HPC)
[11] = dose: 100.0 mg/kg/injection, schedule: Q01DX009 (ip), vehicle: Klucel (hydroxypropylcellulose) (HPC)
[12] = dose: 200.0 mg/kg/injection, schedule: Q01DX009 (ip), vehicle: Klucel (hydroxypropylcellulose) (HPC)
[13] = dose: 50.0 mg/kg/injection, schedule: Q01DX009 (ip), vehicle: Klucel (hydroxypropylcellulose) (HPC)
[14] = dose: 200.0 mg/kg/injection, schedule: Q04DX003 (ip), vehicle: saline with Tween-80
[15] = dose: 400.0 mg/kg/injection, schedule: Q04DX003 (ip), vehicle: saline with Tween-80
[16] = dose: 100.0 mg/kg/injection, schedule: Q04DX003 (ip), vehicle: saline

SMILES: CCCCCC(C)(C1=NC(C)(C)CC(C)O1)c1ccccc1 (configuration not stated)
- T/C (dose: 12.5 mg/kg/injection, schedule: Q01DX001 (ip), vehicle: saline sonified): 100 % of control
- T/C (dose: 25.0 mg/kg/injection, schedule: Q01DX001 (ip), vehicle: saline sonified): 100 % of control
- T/C (dose: 50.0 mg/kg/injection, schedule: Q01DX001 (ip), vehicle: saline sonified): 100 % of control

SMILES: O=C1C=C(N2CC2)c2ccccc2C1=O
- T/C (dose: 2.5 mg/kg/injection, schedule: Q01DX009 (ip), vehicle: Klucel (hydroxypropylcellulose) (HPC)): 100 % of control
- T/C (dose: 5.0 mg/kg/injection, schedule: Q01DX009 (ip), vehicle: Klucel (hydroxypropylcellulose) (HPC)): 90 % of control
- T/C (dose: 10.0 mg/kg/injection, schedule: Q01DX009 (ip), vehicle: Klucel (hydroxypropylcellulose) (HPC)): 104 % of control
- T/C (dose: 11.0 mg/kg/injection, schedule: Q04DX003 (ip), vehicle: saline with Tween-80): 109 % of control
- T/C (dose: 16.5 mg/kg/injection, schedule: Q04DX003 (ip), vehicle: saline with Tween-80): 104 % of control
- T/C (dose: 20.0 mg/kg/injection, schedule: Q01DX009 (ip), vehicle: Klucel (hydroxypropylcellulose) (HPC)): 104 % of control
- T/C [1]: 118 % of control

SMILES: O=[N+]([O-])OCc1c(Cl)nc(Cl)c(Cl)c1Cl
- T/C [2]: 115 % of control
- T/C [1]: 95 % of control
- T/C [3]: 110 % of control
- T/C (dose: 50.0 mg/kg/injection, schedule: Q04DX003 (ip), vehicle: saline with Tween-80): 100 % of control
- T/C [4]: 108 % of control

SMILES: O=C1CN=C(c2ccc[nH]2)c2cc(Cl)ccc2N1
- T/C [2]: 118 % of control
- T/C (dose: 45.0 mg/kg/injection, schedule: Q01DX009 (oral), vehicle: saline): 104 % of control
- T/C [3]: 100 % of control
- T/C [5]: 97 % of control
- T/C (dose: 65.0 mg/kg/injection, schedule: Q01DX009 (oral), vehicle: saline): 100 % of control
- T/C (dose: 100.0 mg/kg/injection, schedule: Q01DX001 (ip), vehicle: saline with Tween-80): 95 % of control
- T/C (dose: 100.0 mg/kg/injection, schedule: Q01DX001 (oral), vehicle: saline with Tween-80): 90 % of control
- T/C [6]: 118 % of control
- T/C [7]: 105 % of control
- T/C (dose: 100.0 mg/kg/injection, schedule: Q01DX009 (oral), vehicle: saline with Tween-80): 95 % of control
- T/C (dose: 200.0 mg/kg/injection, schedule: Q01DX001 (ip), vehicle: saline with Tween-80): 104 % of control
- T/C (dose: 200.0 mg/kg/injection, schedule: Q01DX001 (oral), vehicle: saline with Tween-80): 86 % of control
- T/C [8]: 118 % of control
- T/C (dose: 200.0 mg/kg/injection, schedule: Q01DX009 (ip), vehicle: saline): 97 % of control
- T/C (dose: 200.0 mg/kg/injection, schedule: Q01DX009 (oral), vehicle: saline with Tween-80): 104 % of control
- T/C (dose: 400.0 mg/kg/injection, schedule: Q01DX001 (ip), vehicle: saline with Tween-80): 90 % of control
- T/C (dose: 400.0 mg/kg/injection, schedule: Q01DX001 (oral), vehicle: saline with Tween-80): 95 % of control
- T/C [9]: 163 % of control
- T/C (dose: 400.0 mg/kg/injection, schedule: Q01DX009 (ip), vehicle: saline): 103 % of control
- T/C (dose: 800.0 mg/kg/injection, schedule: Q01DX001 (ip), vehicle: saline with Tween-80): 109 % of control
- T/C (dose: 800.0 mg/kg/injection, schedule: Q01DX001 (oral), vehicle: saline with Tween-80): 100 % of control

SMILES: [O-][n+]1c(CCl)nc2ccccc2c1-c1ccccc1F
- T/C [3]: 118 % of control
- T/C [6]: 105 % of control

SMILES: Nc1c(Br)cc(Br)cc1Br
- T/C (dose: 6.0 mg/kg/injection, schedule: Q01DX009 (ip), vehicle: Klucel (hydroxypropylcellulose) (HPC)): 110 % of control
- T/C (dose: 12.0 mg/kg/injection, schedule: Q01DX009 (ip), vehicle: Klucel (hydroxypropylcellulose) (HPC)): 105 % of control
- T/C [10]: 105 % of control
- T/C [11]: 105 % of control
- T/C (dose: 100.0 mg/kg/injection, schedule: Q04DX003 (ip), vehicle: Klucel (hydroxypropylcellulose) (HPC)): 100 % of control
- T/C [12]: 100 % of control
- T/C (dose: 200.0 mg/kg/injection, schedule: Q04DX003 (ip), vehicle: Klucel (hydroxypropylcellulose) (HPC)): 95 % of control
- T/C (dose: 400.0 mg/kg/injection, schedule: Q01DX009 (ip), vehicle: Klucel (hydroxypropylcellulose) (HPC)): 111 % of control
- T/C (dose: 400.0 mg/kg/injection, schedule: Q04DX003 (ip), vehicle: Klucel (hydroxypropylcellulose) (HPC)): 100 % of control

SMILES: CCCCCC(Br)C(Br)CC(Br)C(Br)CCCCCCCC(=O)O (configuration not stated)
- T/C (dose: 100.0 mg/kg/injection, schedule: Q01DX001 (ip), vehicle: Klucel (hydroxypropylcellulose) (HPC)): 100 % of control
- T/C (dose: 200.0 mg/kg/injection, schedule: Q01DX001 (ip), vehicle: Klucel (hydroxypropylcellulose) (HPC)): 109 % of control
- T/C (dose: 400.0 mg/kg/injection, schedule: Q01DX001 (ip), vehicle: Klucel (hydroxypropylcellulose) (HPC)): 104 % of control

SMILES: NC(=O)c1ccccc1NC(=O)c1ccccc1C(=O)O
- T/C [3]: 99 % of control
- T/C [6]: 151 % of control
- T/C [8]: 153 % of control

SMILES: CCOC(=O)Sc1ncnc2nc[nH]c12
- T/C [6]: 109 % of control
- T/C [8]: 90 % of control

SMILES: CCCCCCC(O)CCCCCC
- T/C (dose: 100.0 mg/kg/injection, schedule: Q01DX009 (ip), vehicle: other): 90 % of control
- T/C (dose: 200.0 mg/kg/injection, schedule: Q01DX009 (ip), vehicle: other): 105 % of control

SMILES: NCC(O)CSc1ccc(Cl)c(Cl)c1 (configuration not stated)
- T/C (dose: 50.0 mg/kg/injection, schedule: Q04DX002 (ip), vehicle: saline with Tween-80): 98 % of control
- T/C (dose: 100.0 mg/kg/injection, schedule: Q04DX002 (ip), vehicle: saline with Tween-80): 106 % of control

SMILES: CCCNC(=O)/C=C\S(=O)CCC (configuration not stated)
- T/C [2]: 100 % of control
- T/C [3]: 98 % of control
- T/C [6]: 112 % of control

SMILES: COc1ccc2c(c1)CCN(C1=C(C)C(=O)CC1)C2CC(=O)O (configuration not stated)
- T/C (dose: 100.0 mg/kg/injection, schedule: Q01DX001 (ip), vehicle: saline sonified): 100 % of control
- T/C (dose: 200.0 mg/kg/injection, schedule: Q01DX001 (ip), vehicle: saline sonified): 100 % of control
- T/C (dose: 400.0 mg/kg/injection, schedule: Q01DX001 (ip), vehicle: saline sonified): 100 % of control

SMILES: O=S1(=O)CCN(CCc2ccccc2)CC1
- T/C [13]: 94 % of control
- T/C [11]: 90 % of control
- T/C [12]: 96 % of control

SMILES: COc1cc(OC)cc(C(=O)Br)c1
- T/C [6]: 91 % of control
- T/C [4]: 90 % of control
- T/C [8]: 91 % of control
- T/C [14]: 90 % of control
- T/C [9]: 91 % of control
- T/C [15]: 95 % of control

SMILES: O=C1c2ccccc2S(=O)(=O)N1CC(O)COc1ccc(Cl)cc1 (configuration not stated)
- T/C [4]: 104 % of control
- T/C [14]: 100 % of control
- T/C [15]: 95 % of control

SMILES: CC(=O)Nc1cc(C)c2ccc(Cl)nc2n1
- T/C [16]: 97 % of control
- T/C (dose: 200.0 mg/kg/injection, schedule: Q04DX003 (ip), vehicle: saline): 92 % of control
- T/C (dose: 400.0 mg/kg/injection, schedule: Q04DX003 (ip), vehicle: saline): 91 % of control

SMILES: COc1ccc(/C=C/C(=O)c2ccccc2)cc1
- T/C [6]: 97 % of control
- T/C [4]: 104 % of control
- T/C [8]: 98 % of control
- T/C [14]: 104 % of control
- T/C [9]: 98 % of control
- T/C [15]: 104 % of control

SMILES: OCC1OC(n2cc(Cl)c3cncnc32)C(O)C1O (configuration not stated)
- T/C (dose: 50.0 mg/kg/injection, schedule: Q04DX003 (ip), vehicle: saline): 100 % of control
- T/C [16]: 90 % of control

SMILES: COc1cc2ccc3c[n+]4ccccc4cc3c2cc1OC
- T/C [10]: 102 % of control
- T/C (dose: 25.0 mg/kg/injection, schedule: Q01DX009 (ip), vehicle: saline): 112 % of control
- T/C [13]: 116 % of control
- T/C [5]: 117 % of control
- T/C [7]: 114 % of control
- T/C (dose: 150.0 mg/kg/injection, schedule: Q01DX009 (ip), vehicle: Klucel (hydroxypropylcellulose) (HPC)): 118 % of control

SMILES: CCCNC1=C(N2CC2)C(=O)C(NCCC)=C(N2CC2)C1=O
- T/C (dose: 1.5 mg/kg/injection, schedule: Q01DX009 (ip), vehicle: saline): 161 % of control
- T/C (dose: 3.0 mg/kg/injection, schedule: Q01DX009 (ip), vehicle: saline): 166 % of control and 203 % of control
- T/C (dose: 6.0 mg/kg/injection, schedule: Q01DX009 (ip), vehicle: saline): 251 % of control and 208 % of control
